Test results as given in BindingDB's records for doi:10.1016/j.bmc.2010.04.086 (Hoshi University, 2010).

Target: T1, Polyphenol oxidase 2 (Agaricus bisporus, UniProt O42713)
T1 sequence (O42713 whole entry): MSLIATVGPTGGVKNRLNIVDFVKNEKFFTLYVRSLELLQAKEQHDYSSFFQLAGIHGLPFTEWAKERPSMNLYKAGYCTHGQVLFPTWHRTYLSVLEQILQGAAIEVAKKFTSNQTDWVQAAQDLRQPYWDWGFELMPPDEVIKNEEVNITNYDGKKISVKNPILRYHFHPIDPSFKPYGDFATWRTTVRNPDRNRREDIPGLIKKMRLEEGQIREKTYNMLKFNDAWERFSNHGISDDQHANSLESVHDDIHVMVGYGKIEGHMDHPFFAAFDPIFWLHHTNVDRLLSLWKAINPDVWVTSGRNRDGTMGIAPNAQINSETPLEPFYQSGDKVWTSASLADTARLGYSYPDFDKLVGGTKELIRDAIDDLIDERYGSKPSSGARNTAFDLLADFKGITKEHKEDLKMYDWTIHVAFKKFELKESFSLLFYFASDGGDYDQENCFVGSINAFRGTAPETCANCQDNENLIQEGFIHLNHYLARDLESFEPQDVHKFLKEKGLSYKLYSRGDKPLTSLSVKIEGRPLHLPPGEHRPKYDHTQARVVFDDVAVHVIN
Assay: Inhibition of mushroom tyrosinase

| Structure (SMILES) | IC50 [µM] |
| --- | --- |
| COC(=O)C1C2=Nc3ccccc3[C@]23CCN2C[C@@H](C(C)=O)[C@H]1C[C@@H]23 (stereo not given in full) [Alpneumine E] | > 100 |
| COC(=O)C1C2=Nc3ccccc3[C@]23CC[N+]2([O-])C[C@H](C(C)=O)[C@H]1C[C@H]32 (stereo not given in full) [Alpneumine C] | > 100 |
| COC(=O)C1C2=Nc3c(O)cccc3[C@]23CC[N+]2([O-])C[C@H](C(C)=O)[C@H]1C[C@H]32 (stereo not given in full) [Alpneumine A] | > 100 |
| COC(=O)C1C2=Nc3c(O)cccc3[C@]23CCN2C[C@@H](C(C)=O)[C@H]1C[C@@H]23 (stereo not given in full) [Alpneumine D] | > 100 |
| COC(=O)C1C2=Nc3c(O)cccc3[C@]23CCN2C[C@H](C(C)=O)[C@H]1C[C@@H]23 (stereo not given in full) [Alpneumine B] | > 100 |
